Experimental data: article PMC6934184, “Selective DNA-PKcs inhibition extends the therapeutic index of localized radiotherapy and chemotherapy” (The Journal of Clinical Investigation, 2019)

Target: T1, BRSK2 (Homo sapiens, UniProt Q8IWQ3)
T1 construct: purchased Thermo Fisher Scientific (Life Technologies) SelectScreen
Test: SelectScreen LanthaScreen
Format: binding
Settings: read-out: % displacement
Procedure, shortened: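 SelectScreen broad panel; activity (Z'LYTE, Adapta) plus binding formats. ATP: Km app for CSF1R Z'LYTE; 10 for CAMK1 Adapta. Readout = % per kinase.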

T1 sequence (Q8IWQ3 whole entry): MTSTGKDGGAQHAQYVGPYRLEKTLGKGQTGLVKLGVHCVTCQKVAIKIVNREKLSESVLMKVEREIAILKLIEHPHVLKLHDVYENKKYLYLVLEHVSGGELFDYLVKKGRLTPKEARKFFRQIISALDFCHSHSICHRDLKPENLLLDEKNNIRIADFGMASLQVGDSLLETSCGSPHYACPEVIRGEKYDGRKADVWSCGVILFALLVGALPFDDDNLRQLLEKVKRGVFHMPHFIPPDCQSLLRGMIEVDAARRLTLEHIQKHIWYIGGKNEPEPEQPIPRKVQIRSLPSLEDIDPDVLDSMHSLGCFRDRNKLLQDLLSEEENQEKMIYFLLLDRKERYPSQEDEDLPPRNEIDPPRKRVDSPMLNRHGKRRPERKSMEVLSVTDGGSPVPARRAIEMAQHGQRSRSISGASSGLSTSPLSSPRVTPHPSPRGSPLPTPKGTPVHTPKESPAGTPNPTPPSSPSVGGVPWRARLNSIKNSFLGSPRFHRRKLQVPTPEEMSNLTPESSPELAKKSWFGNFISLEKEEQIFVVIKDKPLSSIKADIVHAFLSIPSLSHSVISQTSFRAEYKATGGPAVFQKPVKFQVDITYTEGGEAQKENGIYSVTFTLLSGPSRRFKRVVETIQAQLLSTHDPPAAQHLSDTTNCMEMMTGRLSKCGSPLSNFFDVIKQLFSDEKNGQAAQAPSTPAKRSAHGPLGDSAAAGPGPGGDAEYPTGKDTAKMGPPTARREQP

`CN(C(=O)CN1CCOCC1)c1ccc2sc3c(-c4cccc5c(=O)cc(N6CC7CCC(C6)O7)oc45)cccc3c2c1` [NU5455] gave an inhibition at 1 µM of 1.2%.
